In general, Emax refers to the size of the effect at its maximum, as opposed to the concentration needed.

Consider 22 molecules from patent publication US20230384333A1 (priority 2020, published 2023).

In assay [1] the test system is psychLight2. The format is cell-based, human. As for the experimental part: Compounds unlikely to bind to the sensor should produce minimal to no response in either agonist or antagonist mode. Therefore, a ligand score was calculated as: […]
For another assay, the system named is C57BL/6J mice. Kind of assay: Head-twitch response (HTR) assay. The format is in vivo, mouse. As to conditions: i.p., multiple doses. As for the experimental part:
The HTR assay was performed as described previously using both male and female C57BL/6J mice (2 male and 2 female=4 total per treatment). The mice were obtained from The Jackson Laboratory (Sacramento, C.A.) and were approximately 8-weeks old at the time of the experiments. Compounds were administered (5 mL/kg, i.p.) using 0.9% saline as the vehicle. After injection, animals were placed into an empty cage (8″×13″×5″) and HTRs were videotaped, scored later by two blinded observers, and the results were averaged (interpersonnel kappas, Pearson correlation coefficient>0.91). Locomotion was assessed using AnyMaze automated tracking software.

Assay [2] concerns the target psychLight1 (Homo sapiens, UniProt P28223, E264Q/I181A). Kind of assay: cell-based. The format is cell-based. How it is done: (§1) HEK293T cells were grown in DMEM, supplemented with fetal bovine serum (FBS) and penicillin-streptomycin. Cells were trans-fected with Effectene according to the manufacturer's instructions. Prior to imaging, cells were washed with Hank's Balanced Salt Solution (HBSS) supplemented with 2 mM MgCl2 and 2 mM CaCl2). All images were collected in HBSS containing Mg^2+ and Ca^2+.
(§2) HEK293T cells were plated and transfected concurrently 24 h prior to each experiment using the QIAGEN Effectene Transfection
(§3) Dose-response experiments were performed using an Automate Perfusion System. Cells (HEK293T) were grown on 12 mm cover-slips and transfected with psychLight1. The coverslips were then placed into a coverslip holder and washed with 5 mL of HBSS containing 2 mM MgCl2 and 2 mM CaCl2). Cells were perfused first with 5 mL of 0.1% DMSO, then drugs in ascending concentrations from 1 pM to […] were added, with the concentration of DMSO being held constant at 0.10%. […] For the competition studies described in FIG. 19, HEK293T cells were prepared as described above; however, the cells were first exposed to 5 mL of 0.2% DMSO. […] Analysis was performed by taking 3 ROIs on the cell membrane using ImageJ and calculating the mean intensity for each ROI across the time-points. Finally, the DF/F was calculated using the average of the baseline (0.1 or 0.2% DMSO) and the average intensity between each dosage over the average of the baseline.

For assay [3], the system named is psychLight2. Kind of assay: PSYLI2 high-content imaging, agonist mode. The format is cell-based, human. As for the experimental part: (§4) High-Content Imaging Experiments. Glass bottom 96-well plates (P96-1.5H-N, Cellvis) were coated with 50 μg/mL of poly-D-lysine (Sigma, P6407-5MG) and 10 μg/mL laminin (Sigma, L2020) overnight in an incubator (37° C., 5% CO2). […] Immediately prior to an experiment, stock solutions of drugs in DMSO (10 mM) were first diluted 1:100 in imaging media distributed across an empty 96-well plate (treatment plate) in triplicates following a randomized plate map. […] Cells grown in a separate 96-well plate (assay plate) were gently washed (3×) with imaging media, and the wells were filled with an appropriate volume of imaging media for the respective experiment (vide infra).
(§5) For agonist mode, […] of imaging media was added to each well of the assay plate. Wells were then imaged on a Lecia DMi8 using Leica Application Suite X (V3.6.0.20104) at 40×(N.A.=0.6) with 5 regions of interest (ROI) taken per well using the default 5 ROI pattern for each well with no bias to location and no overlap of the ROIs (exposure=350 ms, LED power=80%). Next, 20 μL from the treatment plate was transferred to the assay plate for a total 1:1000 dilution of drug (10 μM drug, 0.1% DMSO). […] All final concentrations of drugs were 10 μM (0.1% DMSO) in agonist mode unless stated otherwise. After 5 min of incubation, the same sites were re-imaged using the same settings.
Once imaging was complete, the images were exported, put into a stack, and analyzed using ImageJ Fiji (ver. 1.51v) by using the rectangle function to draw an ROI around the cell membrane (one cell per image) on both the pre- and posttreatment images. ROI sizes within each plate were kept the same and saved to the ROI manager in ImageJ (ctrl+T). Images were then measured using the “multi measure” function in the ROI manager. Measurements were saved and exported. Analysis of the data was done by taking the average of each individual well's ROIs before and after drugs were added. Then the ΔF/F values for each well were calculated using the following equation: […]
as §4, with “Glass” for “High-Content Imaging Experiments. Glass”, “50 µg/mL” for “50 μg/mL”, “10 pg/mL of” for “10 μg/mL”, “were” for “were first”, “in triplicate” for “in triplicates”, “washed 3×” for “washed (3×)”
as §5, with “agonist mode experiments,” for “agonist mode,”, “media were” for “media was”, “20 pL” for “20 μL”, “plate containing” for “plate for”, “a” for “a total”, “(10 pM as the final concentration in” for “(10 μM drug,”
Once imaging was complete, the images were exported, and analyzed using self-written MATLAB script. Script will be deposit on to Github. In short, segmentation was performed on individual images and a mask highlighting the membrane of the HEK293T cells was generated. Pixel intensities were obtained from the mask-highlighted area and exported into Excel. The ΔF/F values for each well were calculated using the following equation: […]

Assay [4] has as its system psychLight1. The assay is described as follows: cell-based. The format is cell-based, human. As to conditions: for EC50: read-out: EC50 (half maximal effective concentration). As for the experimental part:
as §1, §2, §3

The subject of assay [5] is psychLight2. As to conditions: mouse, in vivo. An excerpt:
Three animals were used for experiments measuring sensor activity in the prelimbic cortex.

Assay [6] concerns psychLight. The format is cell-based, human.
Assay [7] concerns psychLight2 response to electrically evoked 5-HT release. Also on record: species or system mouse.
In assay [8] the test system is psychLight. Kind of assay: Schild regression analysis in PSYLI2 cells. The format is cell-based, human. How it is done: During imaging, […] of imaging media were added to each well of the assay plate. Wells were then imaged on a Lecia DMi8 using Leica Application Suite X (V3.6.0.20104) at 40×(N.A.=0.6) with 5 regions of interest (ROI) taken per well using the default 5 ROI pattern for each well with no bias to location and no overlap of the ROIs (exposure=350 ms, LED power=80%). Next, […] from the treatment plate was transferred to the assay plate for a final 1:1000 dilution of drug. All final drug treatments contained 0.1% DMSO. After 5 min of incubation, the same sites were re-imaged using the same settings. The data analysis method was the same as in agonist and antagonist mode.

Setting [9] is: HEK293T cells expressing psychLight.
Setting [10] is: 10 μM compound, hit limit 1 SD from vehicle.

“Also recorded” adds a separate entry of the source. Read-outs that look alike come from different tables or passages of the source.

psychLight1 (Homo sapiens, UniProt P28223, E264Q/I181A), sequence (P28223 whole entry I181A/E264Q, looked up): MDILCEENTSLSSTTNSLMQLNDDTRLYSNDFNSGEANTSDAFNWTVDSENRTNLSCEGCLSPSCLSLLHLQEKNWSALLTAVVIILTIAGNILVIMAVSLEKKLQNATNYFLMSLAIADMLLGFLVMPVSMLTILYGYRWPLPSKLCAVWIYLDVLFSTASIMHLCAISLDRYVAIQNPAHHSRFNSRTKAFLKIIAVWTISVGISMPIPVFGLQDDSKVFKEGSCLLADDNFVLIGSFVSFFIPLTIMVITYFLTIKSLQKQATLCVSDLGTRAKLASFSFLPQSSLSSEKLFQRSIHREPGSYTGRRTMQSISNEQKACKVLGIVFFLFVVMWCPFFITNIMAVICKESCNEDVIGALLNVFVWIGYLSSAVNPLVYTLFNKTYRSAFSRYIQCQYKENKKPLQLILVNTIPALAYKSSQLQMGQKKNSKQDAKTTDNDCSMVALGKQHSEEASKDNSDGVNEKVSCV

Turning to `CN(C)CCc1c[nH]c2ccc(Br)cc12` [5-Br-DMT, 5-bromo-N,N-dimethyltryptamine], in the assay on psychLight2 [1], the ligand score entry is listed as “negative ligand score”. For the same molecule, the “head-twitch response (HTR)” value in the assay with C57BL/6J mice was “did not induce head-twitches at any dose; also recorded: failed to induce HTRs at any dose”.

Take `CN(C)CCc1c[nH]c2ccc(Cl)cc12` [5-Cl-DMT, 5-chloro-N,N-dimethyltryptamine]: the ligand score entry with psychLight2 [1] is on record as “positive ligand scores”. In the assay on C57BL/6J mice, the “head-twitch response (HTR)” value is “produced robust HTRs”.

Consider `CN(C)CCc1c[nH]c2ccc(F)cc12` [5-F-DMT, 5-flouo-N,N-dimethyltryptamine], for which the ligand score entry with psychLight2 [1] is listed as “positive ligand scores”. Moreover, the “head-twitch response (HTR)” value with C57BL/6J mice is “produced robust HTRs”.

As to `NCCc1c[nH]c2ccc(O)cc12` [5-HT, serotonin], the “fluorescence intensity change, confocal with psychLight1” value (shortened to “fluorescence intensity change, confocal”) at psychLight1 [2] is on record as 77.3±2.4%. Also, in the assay with psychLight2 [3], the “PSYLI2 response (positive and negative controls)” value came out at 44.8±0.8%; the “fluorescence intensity change, high content imager with psychLight2” value came out at 38.2±2.4%; the “ΔF/F PSYLI2 fluorescence, panel of tryptamines” value (shortened to “ΔF/F PSYLI2 fluorescence, panel”) was 46.3%±1.4%.

On to `COc1ccc2[nH]cc(CCN(C)C)c2c1` [5-MeO, 5-methoxy-N,N-dimethyltrytamine], for which the Emax at psychLight1 [2] came out at 48.4%. Besides, in the assay on psychLight1 [4], the “fluorescence intensity change, confocal” value is 48.4±3.1% and the EC50 amounted to 157 nM. Further, the “fluorescence intensity change, high content imager with psychLight2” value with psychLight2 [3] worked out at 24.1±4.6%. In addition, in the assay on psychLight2 [5], the “head-twitch response during fiber photometry” value is listed as “concomitant increase in HTR” and the “psychLight2 fluorescence in prelimbic cortex after injection” value was “sharp increase in fluorescence”.

Regarding `CN(C)CCc1c[nH]c2ccc(O)cc12` [BUFO, N,N-dimethylserotonin], the “ΔF/F PSYLI2 fluorescence, panel” value with psychLight2 [3] was 22.3%±2.8%.

The molecule `CN(C)CCc1c[nH]c2ccccc12` [DMT, N,N-dimethyltrytamine] registered an Emax at psychLight1 [2] (HEK-293T) of 12.4%. Besides, the EC50 in the assay on psychLight1 [4] is 627 nM. For the same molecule, the “screen outcome in agonist mode” value in the assay with psychLight2 [3] was “false negative”.

Consider `NCCCC(=O)O` [GABA, y-aminobutyric acid], for which the “response of psychLight to neurotransmitters” value (shortened to “response of psychLight”) in the assay on psychLight [6] (setting [9]) is “do not respond”.

For `O=C(c1ccc(F)cc1)C1CCN(CCn2c(=O)[nH]c3ccccc3c2=O)CC1` [KETSN, ketanserin], at psychLight1 [2], the “block of 5-HT-induced activation of psychLight” value is given as “able to block 5-HT-induced activation of psychLight”; the “effect on psychLight fluorescence” value is “neutral antagonists; also recorded: minimal effect on psychLight1 fluorescence or slightly quenched the sensor”; the “fluorescence intensity change, confocal” value is −1.7±0.3%. Also, in the assay on psychLight2 [3], the “PSYLI2 response (positive and negative controls)” value is −12.7±0.5%; the “fluorescence intensity change, high content imager with psychLight2” value is −3.5±1.6%. Moreover, in assay [7], the “block of psychLight fluorescence to electrically evoked 5-HT transients” value (“block of psychLight fluorescence” below) is “sufficient to block psychLight fluorescence”. Further, the “peak response to field stimulation of BNST slices” value in [7] (KETSN 10 μM, N=5 slices) turned out to be 0±0.36%.

Take `CCN(CC)C(=O)N[C@H]1C=C2c3cccc4[nH]cc(c34)C[C@H]2N(C)C1` [LIS, lisuride]: the “Schild regression (pA2) outcome” value in the assay with psychLight [8] is listed as “potent psychLight competitive antagonists”.

In the case of `CNCCc1c[nH]c2ccc(O)cc12` [N-5-HT, N-methylserotonin], in the assay with psychLight2 [3], the “ΔF/F PSYLI2 fluorescence, panel” value is recorded as 24.6%±1.7%.

Regarding `c1ccc(C2(N3CCCCC3)CCCCC2)cc1` [PCP, Phencyclidine], in the assay with psychLight2 [3], the “screen outcome in agonist mode” value is listed as “did not activate the sensor”. Moreover, in the assay on psychLight2 [1], the ligand score is around 0.

With `C[C@H](Cc1ccccc1)N(C)C` [R-dimethamphetamine, (R)-dimethamphetamine], the “screen outcome in agonist mode” value in the assay with psychLight2 [3] (setting [10]) is recorded as “potential hallucinogenic hits”.

Turning to `CN1CCc2cccc3c2[C@H]1Cc1ccc(O)c(O)c1-3` [apomorphine, R-(−)-apomorphine], the “Schild regression (pA2) outcome” value in the assay with psychLight [8] was “potent psychLight competitive antagonists”.

As for `CN1[C@@H]2CC[C@H]1C[C@@H](OC(c1ccccc1)c1ccccc1)C2` [benztropine], the “Schild regression (pA2) outcome” value in the assay on psychLight [8] is “potent psychLight competitive antagonists”.

In the case of `NCCc1ccc(O)c(O)c1` [dopamine], the “response of psychLight” value in the assay on psychLight [6] was “do not respond”.

`N[C@@H](CCC(=O)O)C(=O)O` [glutamate, L-glutamic acid]: the “response of psychLight” value with psychLight [6] (setting [9]) is given as “do not respond”.

Consider `CN1C2CCCC1CC(NC(=O)c1nn(C)c3ccccc13)C2` (stereo not shown) [granisetron], for which the “block of psychLight fluorescence” value in assay [7] is “sufficient to block psychLight fluorescence”.

Consider `NC[C@H](O)c1ccc(O)c(O)c1` [norepinephrine], for which, in the assay with psychLight [6] (setting [9]), the “response of psychLight” value is “do not respond”.

In the case of `COC(=O)[C@@H]1C[C@H](OC(C)=O)C(=O)[C@H]2[C@@]1(C)CC[C@H]1C(=O)O[C@H](c3ccoc3)C[C@]21C` [salvinorin A], the “screen outcome in agonist mode” value in the assay on psychLight2 [3] (setting [10]) is “did not activate the sensor”. Also, the ligand score in the assay on psychLight2 [1] is listed as around 0.

Regarding `NCCc1c[nH]c2ccccc12` [tryptamine], the “ΔF/F PSYLI2 fluorescence, panel” value with psychLight2 [3] is “robust response”.

Regarding tetrodotoxin citrate, in assay [7], the “block of psychLight fluorescence” value is “sufficient to block psychLight fluorescence”.
